# Read-outs that look alike come from different tables or passages of the source.
# Legend:
# [1] = biological target: T1, SET7/9 (Homo sapiens, UniProt Q8WTS6); conditions: as described, Cheng et al.; cited from earlier work
# T1 sequence (Q8WTS6 1-366): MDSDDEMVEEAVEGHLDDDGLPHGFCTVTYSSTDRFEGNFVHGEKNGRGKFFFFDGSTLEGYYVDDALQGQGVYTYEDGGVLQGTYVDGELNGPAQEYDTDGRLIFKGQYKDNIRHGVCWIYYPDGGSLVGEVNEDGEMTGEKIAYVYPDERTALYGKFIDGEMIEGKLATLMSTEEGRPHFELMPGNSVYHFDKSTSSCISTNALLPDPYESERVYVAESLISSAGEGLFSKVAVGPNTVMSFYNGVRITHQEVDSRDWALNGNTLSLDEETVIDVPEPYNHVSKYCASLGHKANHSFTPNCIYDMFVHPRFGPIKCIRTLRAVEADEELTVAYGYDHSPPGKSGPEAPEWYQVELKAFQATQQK
# [2] = biological target: T2, PRMT1 (Homo sapiens, UniProt Q99873); conditions: in-vitro, Cheng et al.; cited from earlier work
# Target sequence in this assay (Q99873 whole entry, species assumed): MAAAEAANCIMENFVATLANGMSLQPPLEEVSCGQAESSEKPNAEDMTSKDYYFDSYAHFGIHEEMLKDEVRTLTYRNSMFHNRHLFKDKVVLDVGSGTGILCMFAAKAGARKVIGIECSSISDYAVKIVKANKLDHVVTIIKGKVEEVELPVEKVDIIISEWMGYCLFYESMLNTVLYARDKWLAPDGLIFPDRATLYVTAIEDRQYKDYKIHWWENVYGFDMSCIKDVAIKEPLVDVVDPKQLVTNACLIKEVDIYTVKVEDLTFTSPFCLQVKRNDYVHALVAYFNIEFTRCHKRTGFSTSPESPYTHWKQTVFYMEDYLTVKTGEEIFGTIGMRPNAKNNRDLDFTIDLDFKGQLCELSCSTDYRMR
# [3] = biological target: T1, SET7/9; assay: In vitro selectivity test against lysine methyltransferase; type: biochemical
# Excerpt: Für die Enzymhemmung wurde ein Assay verwendet, der auf immobilisierten Oligopeptiden als Enzymsubstrate und den entsprechenden Enzymen beruht. Die Quantifizierung der Methylierung erfolgt über einen Antikörper gegen das Dimethylarginin und die Detektion über einen Europium gelabelten Sekundärantikörper. Die potentesten Verbindungen wurden ebenfalls in-vitro auf ihre Selektivität gegenüber SET7/9, einer Lysinmonomethyltransferase untersucht. Die Methodik der verwendeten Testverfahren ist im Detail in der Dissertation von Astrid Spannhoff, "Neue Testsysteme für Histonmethyltransferasen und Histondemethylasen", Albert-Ludwigs-Universität Freiburg, 2007 beschrieben. Der Offenbarungsgehalt dieser Arbeit wird durch Bezugnahme hier eingeschlossen.
# [4] = biological target: T2, PRMT1; assay: Target-based virtual screening combined with biochemical test, PRMT inhibition of known inhibitors
# Target sequence in this assay (Q99873 whole entry): as the sequence (Q99873 whole entry, species assumed) above
IC50 [3] [µM],Mode of inhibition (Docking- und Kompetitionsexperimente) ([4]; conclusion from docking and competition experiments),IC50 ([4]; inhibitors of PRMT from target-based screening) [nM],Compound,Selektivität gegenüber der Lysinmethyltransferase SET7/9 [1],IC50 [2] [nM]
–,–,–,O=C(Nc1ccc2c(O)cc(S(=O)(=O)O)cc2c1)Nc1ccc2c(O)cc(S(=O)(=O)O)cc2c1 [AMI-1],selektiv,–
–,–,–,O.O.O.O=C([O-])c1ccccc1-c1c2cc(Br)c(=O)c(Br)c-2oc2c(Br)c([O-])c(Br)cc12.[Na+].[Na+] [AMI-5],dualer Inhibitor,1400
11,zum Sustrat kompetitive Verbindungen,1700,Allantodapson,–,–

# Reference: patent EP2221053A1, “Pharmaceutical composition comprising protein methyltransferase I inhibitors and its use for treating tumour diseases” (Albert-Ludwigs-Universität Freiburg, priority 2009, dated 2010)
